Experimental data: patent US7109380B2, “Cyclopentenedione antifungal compounds and methods for their use” (The University of Mississippi, priority 2004, dated 2006)
≈ marks a conversion by molar mass, not a printed value.

Test system: Azole-susceptible and Azole-resistant Candida albicans Strains
Assay: Antifungal activity against azole-susceptible and azole-resistant patient isolates
Format: cell-based
Conditions: for IC50 / IC80: Candida albicans; for Activity against fluconazole-resistant C. albicans strains (in words): isolates from patients during fluconazole therapy
Protocol: Antimicrobial Assay. Susceptibility testing is performed using a modified version of the National Committee for Clinical Laboratory Standards methods. M intracelluare is tested using a modified method of Franzblau, et al. Seventy-two to 96 h prior to the assay, the M intracellulare subculture is prepared by resuspending cells from the surface of the slant in Middlebrook 7H9 broth with OADC enrichment and incubating at 37° C. and 10% CO2. On the day of the assay, prepared samples (dissolved in DMSO) are serially-diluted using 20%/0.9% DMSO/saline and transferred in duplicate to 96 well flat bottom microplates. Candida spp. and C. neoformans inocula are prepared by picking 1–3 colonies from agar plates and resuspending in ˜5 mL 0.9% sterile saline. The absorption of 10011 of the saline suspensions and the M. intracellulare subculture at 630 nm using the EL-340 Biokinetics Reader (Bio-Tek Instruments, Vermont) is compared either the 0.5 McFarland standard of 0.03 (Mi) or standard curves. The microorganisms are diluted in broth [RPMI 1640/2% dextrose/MOPS at pH 7.3 (Cellgro) for Candida spp., Sabouraud Dextrose for C. neoformans, and 5% Alamar Blue™(BioSource International, Camarillo, Calif.) in Middlebrook 7H9 broth with OADC enrichment, pH=7.3 for M. intracellulare to afford final target inocula of: Candida spp.: 1.0×10^4, C. neoformans: 1.0×10^5, and M. intracellulare: 2.0×10^6 after addition to the samples. The microbial inocula are added to the samples to achieve a final volume of 200 μl. Growth (saline only), solvent and blank (media only) controls are included on each test plate. Drug controls [Ciprofloxacin (ICN Biomedicals, Ohio) for bacteria and Amphotericin B (ICN Biomedicals, Ohio) for fungi] are included in each assay. All organisms are read at either 630 nm using the EL-340 Biokinetics Reader (Bio-Tek Instruments, Vermont) or 544ex/590em, (M. intracellulare) using the Polarstar Galaxy Plate Reader (BMG LabTechnologies, Germany) prior to and after incubation: Candida spp. at 37° C. for 18–24 h, C. neoformans at 30° C. for 72 h, and M. intracellulare at 37° C. and 10% CO2 for 72 h. Percent growth is calculated and plotted versus test concentration to afford the IC50 (sample concentration that affords 50% growth of the organism) and the minimum inhibitory concentration (MIC) and minimum fungicidal or bactericidal concentrations (MFC/MBCs). The MIC is defined as the lowest test concentration that allows no detectable growth (for M. intracellulare no color change from blue to pink). Minimum fungicidal or bactericidal concentrations are determined by removing 5 μl from each clear (or blue) well, transferring to agar and incubating as previously mentioned. The MFC/MBC is defined as the lowest test concentration that kills 100% of the organism (allows no growth on agar).
The bioassay method is a modified version of the National Committee for Clinical Laboratory Standards methods, and is same as the one described in example 8 by which the biological data of compounds 1 and 2 (Tables 1 and 2) were obtained, except that the pH of the culture media for Candida spp. was changed from 7.3 to 4.5.

[1] = Isolate 1, azole-susceptible strain (first listing, r6)
[2] = Isolate 1, azole-susceptible strain (second listing, r10)
[3] = Isolate 2, azole-resistant strain
[4] = Isolate 5, azole-resistant strain
[5] = Isolate 8, azole-resistant strain
[6] = Isolate 17, azole-resistant strain

Molecule `COC(/C=C/c1ccccc1)=C1\C(=O)C=C(C)C1=O` [Compound 1, coruscanone A] has an IC50 [1] of 0.6 mg/L (≈ 2.36 µM), an IC80 [1] of 1 mg/L (≈ 3.93 µM) and an IC50 [2] of 0.45 mg/L (≈ 1.77 µM). The IC80 [2] was 0.6 mg/L (≈ 2.36 µM), the IC50 [3] was 0.9 mg/L (≈ 3.54 µM) and the IC80 [3] was 1 mg/L (≈ 3.93 µM). The IC50 [4] was 0.4 mg/L (≈ 1.57 µM), the IC80 [4] was 0.6 mg/L (≈ 2.36 µM) and the IC50 [5] was 0.9 mg/L (≈ 3.54 µM). For the same molecule, the IC80 [5] was 1 mg/L (≈ 3.93 µM), the IC50 [6] was 0.3 mg/L (≈ 1.18 µM) and the IC80 [6] was 0.9 mg/L (≈ 3.54 µM). For the same molecule, the IC95 [1] was 1.50 mg/L (≈ 5.9 µM), the IC95 [2] was 0.75 mg/L (≈ 2.95 µM) and the IC95 [3] was 1.50 mg/L (≈ 5.9 µM). For the same molecule, the IC95 [4] was 0.70 mg/L (≈ 2.75 µM), the IC95 [5] was 1.50 mg/L (≈ 5.9 µM) and the IC95 (Isolate 17, azole-resistant strain, highest test concentration 100 μg/mL) was 1.50 mg/L (≈ 5.9 µM). For the same molecule, the “Activity against fluconazole-resistant C. albicans strains (in words)” value was “retains equivalent activity relative to the susceptible strains” and the “Activity against fluconazole-resistant C. albicans strains (in words)” value (listed as coruscanone A) was “inhibits”.
